Common to all, as to assay type: cell-based, murine
Assay [1] has as its target Ba/F3 EGFR L858R/T790M/C797S mutants (Homo sapiens, UniProt P00533, T790M/C797S/L858R, cells depend on it). The assay is described as follows: CellTiter-Glo cell viability, Ba/F3 EGFR L858R/T790M/C797S cells. Particulars: 72 hours, read-out: Ba/F3 EGFR mutant cell (IC50, nM) L/T/C. In a few lines:
(§1)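 IC50s come from CellTiter-Glo ATP luminescence after 72 h of compound exposure (0, 0.3 up to 2000 nM, 10 concentrations). Ba/F3 lines carried wild-type or mutant EGFR and were plated at 2500 cells/well one day before treatment.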
(ATP-based viability assays read luminescence as a measure of living cells.)

The target of assay [2] is Ba/F3 EGFR L858R/C797S mutants (Homo sapiens, UniProt P00533, C797S/L858R, cells depend on it). Description: CellTiter-Glo cell viability, Ba/F3 EGFR L858R/C797S cells. Particulars: 72 hours, read-out: Ba/F3 EGFR mutant cell (IC50, nM) L/C. In a few lines:
as §1

Assay [3] addresses Ba/F3 EGFR Del19/T790M/C797S mutants (Homo sapiens, UniProt P00533, T790M/C797S, cells depend on it, form not given). The assay is described as follows: CellTiter-Glo cell viability, Ba/F3 EGFR Del19/T790M/C797S cells. Particulars: 72 hours, read-out: Ba/F3 EGFR mutant cell (IC50, nM) D/T/C. Put shortly:
as §1

Assay [4] addresses Ba/F3 EGFR Del19/C797S mutants (Homo sapiens, UniProt P00533, C797S, cells depend on it, form not given). The assay is described as follows: CellTiter-Glo cell viability, Ba/F3 EGFR Del19/C797S cells. Particulars: 72 hours, read-out: Ba/F3 EGFR mutant cell (IC50, nM) D/C. Put shortly:
as §1

Another assay addresses Ba/F3 EGFR Wild-type (Homo sapiens, UniProt P00533). Description: CellTiter-Glo cell viability, Ba/F3 EGFR wild-type cells. Particulars: 72 hours, read-out: Ba/F3 EGFR mutant cell (IC50, nM) WT. In a few lines:
as §1

In assay [5] the target is Ba/F3 EGFR Del19/T790M mutants (Homo sapiens, UniProt P00533, T790M, cells depend on it, form not given). The assay is described as follows: CellTiter-Glo cell viability, Ba/F3 EGFR Del19/T790M cells. Particulars: 72 hours, read-out: Ba/F3 EGFR mutant cell (IC50, nM) D/T. Put shortly: as §1
Sequence of Ba/F3 EGFR Del19/T790M mutants (P00533 with tags, fused parts or gaps DEL746-750/T790M, form open): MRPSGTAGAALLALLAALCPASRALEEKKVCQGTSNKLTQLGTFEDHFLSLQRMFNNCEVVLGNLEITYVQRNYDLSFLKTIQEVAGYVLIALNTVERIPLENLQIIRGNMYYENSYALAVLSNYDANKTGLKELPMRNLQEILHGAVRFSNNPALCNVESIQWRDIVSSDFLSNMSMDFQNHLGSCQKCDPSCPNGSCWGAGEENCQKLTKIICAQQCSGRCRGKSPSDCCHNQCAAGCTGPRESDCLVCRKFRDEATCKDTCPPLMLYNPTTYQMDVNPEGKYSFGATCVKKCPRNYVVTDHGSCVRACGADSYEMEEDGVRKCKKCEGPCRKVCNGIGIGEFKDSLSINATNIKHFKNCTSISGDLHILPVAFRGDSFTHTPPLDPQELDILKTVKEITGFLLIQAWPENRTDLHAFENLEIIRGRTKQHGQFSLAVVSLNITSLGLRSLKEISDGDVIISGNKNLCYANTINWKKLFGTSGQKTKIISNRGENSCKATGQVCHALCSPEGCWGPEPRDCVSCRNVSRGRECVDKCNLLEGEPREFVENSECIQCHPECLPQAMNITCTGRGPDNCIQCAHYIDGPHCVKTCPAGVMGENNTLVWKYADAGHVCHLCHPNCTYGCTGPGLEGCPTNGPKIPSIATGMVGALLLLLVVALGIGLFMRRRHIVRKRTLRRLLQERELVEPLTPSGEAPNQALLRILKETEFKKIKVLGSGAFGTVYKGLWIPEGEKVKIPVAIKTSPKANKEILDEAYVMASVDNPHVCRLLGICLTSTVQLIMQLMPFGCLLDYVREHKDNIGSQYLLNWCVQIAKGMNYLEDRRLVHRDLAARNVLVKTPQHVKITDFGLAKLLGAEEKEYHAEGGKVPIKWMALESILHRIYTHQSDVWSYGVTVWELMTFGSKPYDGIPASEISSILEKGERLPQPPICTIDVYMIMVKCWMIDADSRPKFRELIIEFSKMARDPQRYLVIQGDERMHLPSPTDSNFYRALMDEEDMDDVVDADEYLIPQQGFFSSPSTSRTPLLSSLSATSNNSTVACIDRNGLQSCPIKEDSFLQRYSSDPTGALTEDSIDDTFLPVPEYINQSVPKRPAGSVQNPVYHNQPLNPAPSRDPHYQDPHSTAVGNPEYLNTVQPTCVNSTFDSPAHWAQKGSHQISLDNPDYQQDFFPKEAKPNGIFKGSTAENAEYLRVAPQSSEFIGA

Bounds are passed on as bounds.

Sequence of Ba/F3 EGFR Wild-type (P00533 whole entry, change not shown): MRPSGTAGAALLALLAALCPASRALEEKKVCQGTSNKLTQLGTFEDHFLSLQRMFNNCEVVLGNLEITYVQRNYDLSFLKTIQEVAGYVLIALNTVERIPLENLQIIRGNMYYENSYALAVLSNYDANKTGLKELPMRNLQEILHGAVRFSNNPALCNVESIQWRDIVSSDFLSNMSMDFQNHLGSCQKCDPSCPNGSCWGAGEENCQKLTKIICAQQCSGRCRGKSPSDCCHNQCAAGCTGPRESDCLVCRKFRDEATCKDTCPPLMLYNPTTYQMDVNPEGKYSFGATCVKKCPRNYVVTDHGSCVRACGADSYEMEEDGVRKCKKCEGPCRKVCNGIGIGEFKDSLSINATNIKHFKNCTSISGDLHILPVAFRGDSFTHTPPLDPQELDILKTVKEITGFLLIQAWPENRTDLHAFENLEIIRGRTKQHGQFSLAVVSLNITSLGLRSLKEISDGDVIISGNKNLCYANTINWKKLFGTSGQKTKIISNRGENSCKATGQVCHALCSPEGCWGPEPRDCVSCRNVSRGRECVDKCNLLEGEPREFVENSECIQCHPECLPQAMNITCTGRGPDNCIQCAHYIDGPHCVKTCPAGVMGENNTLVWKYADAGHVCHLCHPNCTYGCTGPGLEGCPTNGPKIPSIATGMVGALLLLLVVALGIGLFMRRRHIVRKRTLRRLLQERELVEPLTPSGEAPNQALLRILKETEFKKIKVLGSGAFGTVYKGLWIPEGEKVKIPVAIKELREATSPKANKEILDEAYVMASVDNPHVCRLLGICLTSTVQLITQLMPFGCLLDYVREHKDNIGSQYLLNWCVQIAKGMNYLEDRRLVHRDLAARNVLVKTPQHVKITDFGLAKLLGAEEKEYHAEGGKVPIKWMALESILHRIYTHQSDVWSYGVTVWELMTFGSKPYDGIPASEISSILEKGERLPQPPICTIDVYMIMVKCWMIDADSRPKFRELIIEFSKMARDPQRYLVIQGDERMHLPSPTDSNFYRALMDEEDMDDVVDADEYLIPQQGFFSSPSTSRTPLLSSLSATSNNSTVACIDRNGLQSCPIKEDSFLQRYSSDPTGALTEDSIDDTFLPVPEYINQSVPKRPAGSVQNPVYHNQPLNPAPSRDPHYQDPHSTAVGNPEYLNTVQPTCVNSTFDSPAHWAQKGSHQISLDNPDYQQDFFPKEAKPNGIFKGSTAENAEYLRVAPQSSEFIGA
Sequence of Ba/F3 EGFR L858R/T790M/C797S mutants (P00533 whole entry T790M/C797S/L858R): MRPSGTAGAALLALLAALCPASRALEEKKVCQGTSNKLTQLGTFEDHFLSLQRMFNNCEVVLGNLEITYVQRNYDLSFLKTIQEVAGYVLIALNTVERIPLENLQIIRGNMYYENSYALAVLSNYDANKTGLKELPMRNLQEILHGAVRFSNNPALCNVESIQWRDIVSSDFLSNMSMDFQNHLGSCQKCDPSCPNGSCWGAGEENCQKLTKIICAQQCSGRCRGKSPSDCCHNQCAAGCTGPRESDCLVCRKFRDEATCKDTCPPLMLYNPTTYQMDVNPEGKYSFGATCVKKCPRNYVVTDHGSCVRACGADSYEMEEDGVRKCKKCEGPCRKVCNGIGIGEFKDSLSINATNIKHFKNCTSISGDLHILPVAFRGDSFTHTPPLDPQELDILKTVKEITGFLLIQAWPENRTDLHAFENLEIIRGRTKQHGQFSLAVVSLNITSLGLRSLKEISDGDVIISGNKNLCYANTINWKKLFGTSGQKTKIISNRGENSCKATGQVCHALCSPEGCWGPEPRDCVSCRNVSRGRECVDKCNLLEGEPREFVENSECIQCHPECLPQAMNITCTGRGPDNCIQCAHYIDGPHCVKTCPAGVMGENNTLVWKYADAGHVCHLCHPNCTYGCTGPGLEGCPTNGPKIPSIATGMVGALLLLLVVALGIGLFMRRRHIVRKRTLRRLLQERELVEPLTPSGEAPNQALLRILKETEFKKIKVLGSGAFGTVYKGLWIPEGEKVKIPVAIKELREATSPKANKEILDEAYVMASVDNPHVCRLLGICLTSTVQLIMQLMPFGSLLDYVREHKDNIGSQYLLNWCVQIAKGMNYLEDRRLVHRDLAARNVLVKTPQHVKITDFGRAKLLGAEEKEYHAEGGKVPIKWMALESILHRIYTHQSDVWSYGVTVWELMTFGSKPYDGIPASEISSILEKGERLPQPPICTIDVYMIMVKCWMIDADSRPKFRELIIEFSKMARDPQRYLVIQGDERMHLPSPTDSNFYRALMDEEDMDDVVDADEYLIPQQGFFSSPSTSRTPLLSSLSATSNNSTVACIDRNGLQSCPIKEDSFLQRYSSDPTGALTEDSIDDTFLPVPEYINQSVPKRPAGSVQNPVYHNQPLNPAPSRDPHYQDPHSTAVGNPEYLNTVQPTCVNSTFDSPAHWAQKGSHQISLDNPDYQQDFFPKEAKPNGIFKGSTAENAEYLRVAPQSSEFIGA
Sequence of Ba/F3 EGFR L858R/C797S mutants (P00533 whole entry C797S/L858R): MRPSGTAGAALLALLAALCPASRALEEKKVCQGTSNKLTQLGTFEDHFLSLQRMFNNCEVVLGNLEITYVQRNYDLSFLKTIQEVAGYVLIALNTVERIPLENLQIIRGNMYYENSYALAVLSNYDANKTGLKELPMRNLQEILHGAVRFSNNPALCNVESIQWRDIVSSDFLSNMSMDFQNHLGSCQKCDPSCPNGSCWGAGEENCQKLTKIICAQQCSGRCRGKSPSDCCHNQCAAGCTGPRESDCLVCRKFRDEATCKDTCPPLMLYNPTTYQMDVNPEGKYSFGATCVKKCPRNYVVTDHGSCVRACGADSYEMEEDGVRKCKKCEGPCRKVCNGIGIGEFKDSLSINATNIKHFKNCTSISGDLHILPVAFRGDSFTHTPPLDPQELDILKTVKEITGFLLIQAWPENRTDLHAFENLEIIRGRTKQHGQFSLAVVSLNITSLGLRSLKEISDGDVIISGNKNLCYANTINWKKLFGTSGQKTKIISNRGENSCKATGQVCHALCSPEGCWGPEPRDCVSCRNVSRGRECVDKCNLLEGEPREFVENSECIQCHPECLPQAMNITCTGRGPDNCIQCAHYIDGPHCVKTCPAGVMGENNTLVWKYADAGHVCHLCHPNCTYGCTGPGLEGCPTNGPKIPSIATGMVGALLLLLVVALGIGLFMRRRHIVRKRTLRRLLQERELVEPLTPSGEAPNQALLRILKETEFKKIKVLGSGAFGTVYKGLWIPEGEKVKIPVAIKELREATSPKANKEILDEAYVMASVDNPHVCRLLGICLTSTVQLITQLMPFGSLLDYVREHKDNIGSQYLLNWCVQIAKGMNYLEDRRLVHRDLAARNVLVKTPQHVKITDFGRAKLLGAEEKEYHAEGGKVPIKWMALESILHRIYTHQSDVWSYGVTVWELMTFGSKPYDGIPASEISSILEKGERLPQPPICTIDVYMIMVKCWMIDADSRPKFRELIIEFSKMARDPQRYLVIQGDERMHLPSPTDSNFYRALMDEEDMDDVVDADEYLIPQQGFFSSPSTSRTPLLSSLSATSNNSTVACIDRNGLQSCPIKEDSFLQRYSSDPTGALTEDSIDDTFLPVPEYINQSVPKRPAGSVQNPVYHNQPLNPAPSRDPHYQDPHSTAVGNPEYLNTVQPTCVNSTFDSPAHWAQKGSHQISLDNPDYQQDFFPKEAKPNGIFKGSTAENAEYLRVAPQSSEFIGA

For the compound `COc1cc(N2CCC(N3CCN(C)CC3)CC2)ccc1Nc1ncc(Cl)c(Nc2ccc3scnc3c2NS(C)(=O)=O)n1` [Example C8, N-(5-((5-chloro-2-((2-methoxy-4-(4-(4-methylpiperazin-1-yl)piperidin-1-yl)phenyl)amino)pyrimidin-4-yl)amino)benzo[d]thiazol-4-yl)methanesulfonamide], the GI50 in assay [1] was 308 nM; in assay [2], 316 nM; in assay [3], 170 nM; in assay [4] it was 210 nM; on Ba/F3 EGFR Wild-type it was 804 nM; in assay [5] it was 94 nM.
Turning to `COc1cc(C2=CCNCC2)c(C)cc1Nc1ncc(Br)c(Nc2ccc3nccnc3c2NS(C)(=O)=O)n1` [Example D2], the GI50 turned out to be 330 nM in assay [1]; 771 nM in assay [2]; 710 nM in assay [3]; 462 nM in assay [4]; 1430 nM on Ba/F3 EGFR Wild-type; 342 nM in assay [5].
Regarding `CCS(=O)(=O)Nc1cc(OC)ccc1Nc1nc(Nc2cc(C)c(N3CCC(N4CCN(C)CC4)CC3)cc2OC)ncc1Cl` [Example C17, N-(2-((5-chloro-2-((2-methoxy-5-methyl-4-(4-(4-methylpiperazin-1-yl)piperidin-1-yl)phenyl)amino)pyrimidin-4-yl)amino)-5-methoxyphenyl)ethanesulfonamide], the GI50 in assay [1] is 40 nM; in assay [2], 52 nM; in assay [3] it was 14 nM; in assay [4], 9 nM; on Ba/F3 EGFR Wild-type, 655 nM; in assay [5], 7 nM.
`COc1cc(N2CCC(N3CCN(C)CC3)CC2)c(C)cc1Nc1ncc(Br)c(Nc2ccc3nccnc3c2NS(=O)(=O)C2CC2)n1` [Example A19, N-(6-((5-bromo-2-((2-methoxy-5-methyl-4-(4-(4-methylpiperazin-1-yl)piperidin-1-yl)phenyl)amino)pyrimidin-4-yl)amino)quinoxalin-5-yl)cyclopropanesulfonamide]: the GI50 is 43 nM in assay [1]; 80 nM in assay [2]; 24 nM in assay [3]; 66 nM in assay [4]; 395 nM on Ba/F3 EGFR Wild-type; 6 nM in assay [5].
`COc1cc(N2CCNCC2)ccc1Nc1ncc(Cl)c(Nc2cccc(OC)c2NS(C)(=O)=O)n1` [Example C6, N-(2-((5-chloro-2-((2-methoxy-4-(piperazin-1-yl)phenyl)amino)pyrimidin-4-yl)amino)-6-methoxyphenyl)methanesulfonamide]: the GI50 was determined as 596 nM in assay [1]; 305 nM in assay [2]; 222 nM in assay [3]; 106 nM in assay [4]; 626 nM at Ba/F3 EGFR Wild-type; 268 nM in assay [5].
Take `COc1cc(C2CCNCC2)ccc1Nc1ncc(Cl)c(Nc2ccc3nccnc3c2NS(C)(=O)=O)n1` [Example B15, N-(6-((5-chloro-2-((2-methoxy-4-(piperidin-4-yl)phenyl)amino)pyrimidin-4-yl)amino)quinoxalin-5-yl)methanesulfonamide]: the GI50 in assay [1] was 2140 nM; in assay [2], 1540 nM; in assay [3] it was 746 nM; in assay [4], 581 nM; on Ba/F3 EGFR Wild-type it was greater than 2000 nM; in assay [5], 1310 nM.
On to `CCc1cc(Nc2ncc(Br)c(Nc3ccc4c(c3N(C)S(C)(=O)=O)OCCO4)n2)c(OC)cc1N1CCC(N2CCN(C)CC2)CC1` [Example C28, N-(6-((5-bromo-2-((5-ethyl-2-methoxy-4-(4-(4-methylpiperazin-1-yl)piperidin-1-yl)phenyl)amino)pyrimidin-4-yl)amino)-2,3-dihydrobenzo[b][1,4]dioxin-5-yl)-N-methylmethanesulfonamide], for which the GI50 worked out at 13 nM in assay [1]; 68 nM in assay [2]; 10 nM in assay [3]; 7 nM in assay [4]; 699 nM on Ba/F3 EGFR Wild-type; 10 nM in assay [5].
For `CCCc1cc(Nc2ncc(Cl)c(Nc3ccc4nccnc4c3NS(C)(=O)=O)n2)c(OC)cc1N1CCC(N(C)C)CC1` [Example B12, N-(6-((5-chloro-2-((4-(4-(dimethylamino)piperidin-1-yl)-2-methoxy-5-propylphenyl)amino)pyrimidin-4-yl)amino)quinoxalin-5-yl)methanesulfonamide], the GI50 in assay [1] was 36 nM; in assay [2], 87 nM; in assay [3], 104 nM; in assay [4] it was 29 nM; at Ba/F3 EGFR Wild-type, 431 nM; in assay [5] it was 19 nM.
Take `CN[C@@H]1CN(c2ccc(Nc3ncc(Cl)c(Nc4ccc5nccnc5c4NS(C)(=O)=O)n3)c(OC)c2)C[C@H]1F` [Example D5]: the GI50 stood at 1320 nM in assay [1]; 680 nM in assay [2]; 699 nM in assay [3]; 595 nM in assay [4]; 1720 nM at Ba/F3 EGFR Wild-type; 466 nM in assay [5].
As to `CCc1cc(Nc2ncc(Br)c(Nc3ccc4nccnc4c3N(C)S(C)(=O)=O)n2)c(OC)cc1N1CCC(N2CCN(C)CC2)CC1` [Example A10, N-(6-((5-bromo-2-((5-ethyl-2-methoxy-4-(4-(4-methylpiperazin-1-yl)piperidin-1-yl)phenyl)amino)pyrimidin-4-yl)amino)quinoxalin-5-yl)-N-methylmethane sulfonamide], the GI50 in assay [1] amounted to 9 nM; in assay [2], 37 nM; in assay [3], 4 nM; in assay [4] it was 16 nM; at Ba/F3 EGFR Wild-type, 400 nM; in assay [5] it was 5 nM.
Regarding `CCCc1cc(Nc2ncc(Cl)c(Nc3ccc4nccnc4c3NS(C)(=O)=O)n2)c(OC)cc1N1CCC(N2CCN(C)CC2)CC1` [Example A6, N-(6-((5-chloro-2-((2-methoxy-4-(4-(4-methylpiperazin-1-yl)piperidin-1-yl)-5-propylphenyl)amino)pyrimidin-4-yl)amino)quinoxalin-5-yl)methanesulfonamide], the GI50 is 12 nM in assay [1]; 29 nM in assay [2]; 4 nM in assay [3]; 14 nM in assay [4]; 498 nM on Ba/F3 EGFR Wild-type; 5 nM in assay [5].
Consider `CCCc1cc(Nc2ncc(Br)c(Nc3ccc4nccnc4c3N(C)S(C)(=O)=O)n2)c(OC)cc1N1CCC(N(C)C)CC1` [Example B24, N-(6-((5-bromo-2-((4-(4-(dimethylamino)piperidin-1-yl)-2-methoxy-5-propylphenyl)amino)pyrimidin-4-yl)amino)quinoxalin-5-yl)-N-methylmethanesulfonamide], for which the GI50 stood at 65 nM in assay [1]; 185 nM in assay [2]; 20 nM in assay [3]; 17 nM in assay [4]; 908 nM on Ba/F3 EGFR Wild-type; 23 nM in assay [5].
Regarding `CCc1cc(Nc2ncc(Br)c(Nc3ccc4nccnc4c3NS(C)(=O)=O)n2)c(OC)cc1N1CCC(N2CCOCC2)CC1` [Example A28, N-(6-((5-bromo-2-((5-ethyl-2-methoxy-4-(4-morpholinopiperidin-1-yl)phenyl)amino)pyrimidin-4-yl)amino)quinoxalin-5-yl)methanesulfonamide], the GI50 in assay [1] worked out at 17 nM; in assay [2], 101 nM; in assay [3], 51 nM; in assay [4], 36 nM; at Ba/F3 EGFR Wild-type, 318 nM; in assay [5], 10 nM.

The record behind these values is patent US12297194B2, “N2-phenylpyrimidine-2,4-diamine compounds, and preparation methods and methods of use thereof” (BRIDGE BIOTHERAPEUTICS, INC., priority 2021, dated 2025).
